Laboratory results from patent US11358948B2, “CRBN ligands and uses thereof” (Kymera Therapeutics, Inc., priority 2017, dated 2022).
Counter-ions that a name gives are not always drawn.

Columns and labels:
[1] = target: His-tagged CRBN-DDB1 complex (Homo sapiens (Human), UniProt Q96SW2); assay: Time-Resolved Fluorescence Resonance Energy Transfer (TR-FRET) assay, displacement of Cy5-labeled thalidomide; format: binding; settings: read-out: CRBN HTRF IC50
Experimental: The mixture were incubated at room temperature for 1 hour. […] Quantitative loss of FRET efficiency as a function of compound concentrations was fitted by a four-parameter Logistic Function using GraphPad Prism 7.0 and the IC50 values were reported for each compound.

[2] = target: Untagged CRBN-DDB1 complex (Homo sapiens (Human), UniProt Q96SW2); assay: Fluorescence Polarization (FP) assay, displacement of Cy5-labeled thalidomide; format: binding; settings: untagged CRBN-DDB1 50 nM, Cy5-labeled thalidomide 20 nM, 10 min room temperature
Experimental: The final solution contained 50 mM HEPES, 200 mM NaCl and 2 mM DTT, pH 7.5. The mixtures were incubated at room temperature for 10 min. The FP signals were recorded on an EnVision plate reader (Perkin Elmer) using the following settings: Excitation Light (%): 100; Measurement Height: 12; G-Factor: 1; Detector Gain 1: 500; Detector Gain 2: 500; Flash Number: 100. Dose-dependent loss of FP signals was fitted by four-parameter Logistic Function using GraphPad Prism 7.0 and the IC50 values were reported for each compound.

Sequence of His-tagged CRBN-DDB1 complex (Q96SW2 whole entry): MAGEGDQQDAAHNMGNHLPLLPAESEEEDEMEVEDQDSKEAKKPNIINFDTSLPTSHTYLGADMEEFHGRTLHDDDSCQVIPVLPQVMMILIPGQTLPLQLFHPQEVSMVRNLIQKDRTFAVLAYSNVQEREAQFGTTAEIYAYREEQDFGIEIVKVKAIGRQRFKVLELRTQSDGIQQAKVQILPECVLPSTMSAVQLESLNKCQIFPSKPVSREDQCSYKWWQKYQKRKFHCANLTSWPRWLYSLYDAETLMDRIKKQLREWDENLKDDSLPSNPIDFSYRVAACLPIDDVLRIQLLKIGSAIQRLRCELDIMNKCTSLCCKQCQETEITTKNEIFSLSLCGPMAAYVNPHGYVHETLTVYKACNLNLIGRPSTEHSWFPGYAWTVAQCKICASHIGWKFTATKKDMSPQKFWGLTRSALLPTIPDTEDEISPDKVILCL
Sequence of His-tagged CRBN-DDB1 complex (Q16531 whole entry partner): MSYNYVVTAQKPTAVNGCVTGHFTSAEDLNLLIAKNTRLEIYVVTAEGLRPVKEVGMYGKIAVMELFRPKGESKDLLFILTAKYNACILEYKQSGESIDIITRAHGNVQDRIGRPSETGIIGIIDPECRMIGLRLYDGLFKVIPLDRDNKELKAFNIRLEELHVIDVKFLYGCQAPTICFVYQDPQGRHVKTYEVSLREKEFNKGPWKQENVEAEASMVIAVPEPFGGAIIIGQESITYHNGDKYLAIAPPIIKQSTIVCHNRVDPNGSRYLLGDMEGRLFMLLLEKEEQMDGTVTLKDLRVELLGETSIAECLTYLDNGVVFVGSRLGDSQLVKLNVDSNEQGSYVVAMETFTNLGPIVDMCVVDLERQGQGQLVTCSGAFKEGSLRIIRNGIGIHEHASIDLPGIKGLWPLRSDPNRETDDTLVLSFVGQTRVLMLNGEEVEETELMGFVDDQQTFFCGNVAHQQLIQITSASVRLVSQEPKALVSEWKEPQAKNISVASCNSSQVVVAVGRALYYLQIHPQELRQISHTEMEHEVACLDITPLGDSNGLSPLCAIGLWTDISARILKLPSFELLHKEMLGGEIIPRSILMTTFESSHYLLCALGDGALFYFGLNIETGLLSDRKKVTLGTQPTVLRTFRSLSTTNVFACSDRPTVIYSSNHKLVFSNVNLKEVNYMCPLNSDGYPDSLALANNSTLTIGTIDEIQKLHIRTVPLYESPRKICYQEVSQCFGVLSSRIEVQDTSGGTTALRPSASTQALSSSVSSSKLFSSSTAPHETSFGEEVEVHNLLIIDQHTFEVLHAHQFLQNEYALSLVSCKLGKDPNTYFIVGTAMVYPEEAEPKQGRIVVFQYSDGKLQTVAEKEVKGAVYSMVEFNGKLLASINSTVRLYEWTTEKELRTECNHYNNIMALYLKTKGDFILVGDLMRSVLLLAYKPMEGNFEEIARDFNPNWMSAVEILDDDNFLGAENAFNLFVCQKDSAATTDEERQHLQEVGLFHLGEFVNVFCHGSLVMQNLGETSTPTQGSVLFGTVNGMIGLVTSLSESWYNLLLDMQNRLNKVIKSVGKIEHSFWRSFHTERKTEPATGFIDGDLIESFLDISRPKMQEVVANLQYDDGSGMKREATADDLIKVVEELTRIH
Sequence of Untagged CRBN-DDB1 complex (Q96SW2 whole entry): as the sequence (Q96SW2 whole entry) above
Sequence of Untagged CRBN-DDB1 complex (Q16531 whole entry partner): as the sequence (Q16531 whole entry partner) above

| IC50 [1] [nM] | IC50 [2] [µM] | Structure (SMILES) |
| --- | --- | --- |
| < 1000 |  | O=C1CCC(N2C[C@H](c3cccc(Br)c3)OC2=O)C(=O)N1 (single isomer, unassigned) [Compound I-84, (R)-3-((S)-5-(3-bromophenyl)-2-oxooxazolidin-3-yl)piperidine-2,6-dione or (S)-3-((S)-5-(3-bromophenyl)-2-oxooxazolidin-3-yl)piperidine-2,6-dione] |
| 10000 to 100000 |  | O=C1CC[C@H](N2C[C@H](c3ccc(Br)cc3)OC2=O)C(=O)N1 [Compound I-73, (S)-3-((S)-5-(4-bromophenyl)-2-oxooxazolidin-3-yl)piperidine-2,6-dione] |
| < 1000 |  | Cn1c(=O)n(C2CCC(=O)NC2=O)c2ccc(CNC(N)=O)cc21 (centres unmarked) [Compound I-74, 1-((1-(2,6-dioxopiperidin-3-yl)-3-methyl-2-oxo-2,3-dihydro-1H-benzo[d]imidazol-5-yl)methyl)urea] |
| < 1000 |  | Cn1c(=O)n(C2CCC(=O)NC2=O)c2cccc([N+](=O)[O-])c21 (centres unmarked) [Compound I-75, 3-(3-methyl-4-nitro-2-oxo-2,3-dihydro-1H-1,3-benzodiazol-1-yl)piperidine-2,6-dione] |
| < 1000 |  | CCOC(=O)NCc1ccc2c(c1)n(C)c(=O)n2C1CCC(=O)NC1=O (centres unmarked) [Compound I-76, ethyl ((1-(2,6-dioxopiperidin-3-yl)-3-methyl-2-oxo-2,3-dihydro-1H-benzo[d]imidazol-5-yl)methyl)carbamate] |
| < 1000 |  | CC(C)(C)OC(=O)NCCOCCOCCOCCOCC#Cc1ccc([C@H]2CN([C@H]3CCC(=O)NC3=O)C(=O)O2)cc1 [Compound I-77, tert-butyl (15-(4-((S)-3-((S)-2,6-dioxopiperidin-3-yl)-2-oxooxazolidin-5-yl)phenyl)-3,6,9,12-tetraoxapentadec-14-yn-1-yl)carbamate] |
| < 1000 |  | Cn1c(=O)n(C2CCC(=O)NC2=O)c2cccc(C#N)c21 (centres unmarked) [Compound I-78] |
| < 1000 |  | Cc1cc(-c2ccc3c(c2)n(C)c(=O)n3C2CCC(=O)NC2=O)n[nH]1 (centres unmarked) [Compound I-79, 3-(3-methyl-5-(3-methyl-1H-pyrazol-5-yl)-2-oxo-2,3-dihydro-1H-benzo[d]imidazol-1-yl)piperidine-2,6-dione] |
| < 1000 |  | Cc1nc(-c2ccc3c(c2)n(C)c(=O)n3C2CCC(=O)NC2=O)c[nH]1 (centres unmarked) [Compound I-80, 3-(3-methyl-5-(2-methyl-1H-imidazol-5-yl)-2-oxo-2,3-dihydro-1H-benzo[d]imidazol-1-yl)piperidine-2,6-dione] |
| < 1000 |  | Cn1c(=O)n(C2CCC(=O)NC2=O)c2cccc(N)c21 (centres unmarked) [Compound I-81, 3-(4-amino-3-methyl-2-oxo-2,3-dihydro-1H-benzo[d]imidazol-1-yl)piperidine-2,6-dione] |
| < 1000 |  | Cn1c(=O)n(C2CCC(=O)NC2=O)c2ccc(-c3cn(CCOCCOCCOCCNC(=O)OC(C)(C)C)nn3)cc21 (centres unmarked) [Compound I-82, tert-butyl (2-(2-(2-(2-(4-(1-(2,6-dioxopiperidin-3-yl)-3-methyl-2-oxo-2,3-dihydro-1H-benzo[d]imidazol-5-yl)-1H-1,2,3-triazol-1-yl)ethoxy)ethoxy)ethoxy)ethyl)carbamate] |
| < 1000 |  | CC(C)(C)OC(=O)NCCOCCOCCOCCOCCCc1ccc([C@H]2CN(C3CCC(=O)NC3=O)C(=O)O2)cc1 (stereo partly drawn) [Compound I-83, tert-butyl (15-(4-((5S)-3-(2,6-dioxopiperidin-3-yl)-2-oxooxazolidin-5-yl)phenyl)-3,6,9,12-tetraoxapentadecyl)carbamate] |
| < 1000 |  | Cn1c(=O)n(C2CCC(=O)NC2=O)c2ccc(CCCOCCOCCOCCOCCNC(=O)OC(C)(C)C)cc21 (centres unmarked) [Compound I-85, tert-butyl (15-(1-(2,6-dioxopiperidin-3-yl)-3-methyl-2-oxo-2,3-dihydro-1H-benzo[d]imidazol-5-yl)-3,6,9,12-tetraoxapentadecyl)carbamate] |
| < 1000 |  | Cn1c(=O)n(C2CCC(=O)NC2=O)c2cccc(C#CCOCCOCCNC(=O)OC(C)(C)C)c21 (centres unmarked) [Compound I-86, tert-butyl (2-(2-((3-(1-(2,6-dioxopiperidin-3-yl)-3-methyl-2-oxo-2,3-dihydro-1H-benzo[d]imidazol-4-yl)prop-2-yn-1-yl)oxy)ethoxy)ethyl)carbamate] |
| > 100000 |  | Cn1c(=O)n(C2CCC(=O)NC2=O)c2ccc(C(N)=O)cc21 (centres unmarked) [Compound I-90, 1-(2,6-dioxopiperidin-3-yl)-3-methyl-2-oxo-2,3-dihydro-1H-benzo[d]imidazole-5-carboxamide] |

More lines, now with the values behind:

| Structure (SMILES) | IC50 [1] [nM] | IC50 [2] [µM] |
| --- | --- | --- |
| O=C1CCC(N2C(=O)Cc3ccccc32)C(=O)N1 (centres unmarked) [Compound I-3, 3-(2-Oxo-2,3-dihydro-1H-indol-1-yl)piperidine-2,6-dione] | 10000 to 100000 | > 100 |
| CN(C)Cc1ccc2c(c1)n(C)c(=O)n2C1CCC(=O)NC1=O (centres unmarked) [Compound I-61, 3-(5-((dimethylamino)methyl)-3-methyl-2-oxo-2,3-dihydro-1H-benzo[d]imidazol-1-yl)piperidine-2,6-dione] | 1000 to 10000 |  |
| CC(=O)Nc1ccc2c(c1)n(C)c(=O)n2C1CCC(=O)NC1=O (centres unmarked) [Compound I-62, N-(1-(2,6-dioxopiperidin-3-yl)-3-methyl-2-oxo-2,3-dihydro-1H-benzo[d]imidazol-5-yl)acetamide] | < 1000 |  |
| Cc1ccc2c(c1)n(C)c(=O)n2C1CCC(=O)NC1=O (centres unmarked) [Compound I-63, 3-(3,5-dimethyl-2-oxo-2,3-dihydro-1H-benzo[d]imidazol-1-yl)piperidine-2,6-dione] | < 1000 |  |
| Cn1c(=O)n(C2CCC(=O)NC2=O)c2ccc(CN)cc21 (centres unmarked) [Compound I-64, 3-(5-(Aminomethyl)-3-methyl-2-oxo-2,3-dihydro-1H-benzo[d]imidazol-1-yl)piperidine-2,6-dione] | < 1000 |  |
| Cn1c(=O)n(C2CCC(=O)NC2=O)c2ccc(N)cc21 (centres unmarked) [Compound I-65, 3-(5-Amino-3-methyl-2-oxo-2,3-dihydro-1H-1,3-benzodiazol-1-yl)piperidine-2,6-dione Hydrochloride] | < 1000 |  |
| CC(=O)NCc1ccc2c(c1)n(C)c(=O)n2C1CCC(=O)NC1=O (centres unmarked) [Compound I-66, N-((1-(2,6-dioxopiperidin-3-yl)-3-methyl-2-oxo-2,3-dihydro-1H-benzo[d]imidazol-5-yl)methyl)acetamide] | < 1000 |  |
| CCNC(=O)Nc1ccc2c(c1)n(C)c(=O)n2C1CCC(=O)NC1=O (centres unmarked) [Compound I-67, 1-(1-(2,6-dioxopiperidin-3-yl)-3-methyl-2-oxo-2,3-dihydro-1H-benzo[d]imidazol-5-yl)-3-ethylurea] | < 1000 |  |
| CNc1ccc2c(c1)n(C)c(=O)n2C1CCC(=O)NC1=O (centres unmarked) [Compound I-68, 3-(3-methyl-5-(methylamino)-2-oxo-2,3-dihydro-1H-benzo[d]imidazol-1-yl)piperidine-2,6-dione] | < 1000 |  |
| CN(C)c1ccc2c(c1)n(C)c(=O)n2C1CCC(=O)NC1=O (centres unmarked) [Compound I-69, 3-(5-(dimethylamino)-3-methyl-2-oxo-2,3-dihydro-1H-benzo[d]imidazol-1-yl)piperidine-2,6-dione] | < 1000 |  |
| CNC(=O)c1ccc2c(c1)n(C)c(=O)n2C1CCC(=O)NC1=O (centres unmarked) [Compound I-70, 1-(2,6-Dioxopiperidin-3-yl)-N,3-dimethyl-2-oxo-2,3-dihydro-1H-benzo[d]imidazole-5-carboxamide] | 1000 to 10000 |  |
| CCNC(=O)NCc1ccc2c(c1)n(C)c(=O)n2C1CCC(=O)NC1=O (centres unmarked) [Compound I-71, 1-((1-(2,6-dioxopiperidin-3-yl)-3-methyl-2-oxo-2,3-dihydro-1H-benzo[d]imidazol-5-yl)methyl)-3-ethylurea] | < 1000 |  |
| O=C1CC[C@@H](N2C[C@H](c3ccc(Br)cc3)OC2=O)C(=O)N1 [Compound I-72, (R)-3-((S)-5-(4-bromophenyl)-2-oxooxazolidin-3-yl)piperidine-2,6-dione] | < 1000 |  |
